25 compounds from patent publication US8618300B2, “Indolizine inhibitors of leukotriene production” (Boehringer Ingelheim International GmbH, priority 2008, dated 2013) can be followed below.

The target in this assay is T1, recombinant human FLAP protein (Homo sapiens, UniProt P20292).
T1 construct: made in house; host or cells: Sf9 insect cells (100,000 x g membrane pellet)
T1 sequence (P20292 1-161): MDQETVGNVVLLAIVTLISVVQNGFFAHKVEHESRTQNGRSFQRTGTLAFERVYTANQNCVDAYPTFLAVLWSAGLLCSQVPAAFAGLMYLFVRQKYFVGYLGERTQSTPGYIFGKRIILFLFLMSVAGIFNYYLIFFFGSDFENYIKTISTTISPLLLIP
The assay can be described thus: FLAP binding assay, Scintillation Proximity Assay, displacement of [125I]L-691,831. To be noted: read-out: hFLAP binding IC50. As to the method:
Compounds are assessed for the ability to bind to FLAP in a binding assay that measures compound-specific displacement of an iodinated (^1251) FLAP inhibitor via a Scintillation Proximity Assay format (adapted from S. Charleson et al., Mol. Pharmacol., 1992, 41, 873-879).
Cell pellets produced from sf9 insect cells expressing recombinant human FLAP protein are resuspended in buffer A [15 mM Tris-HCl (pH 7.5), 2 mM MgCl2, 0.3 mM EDTA, 1 mM PMSF]. The cells are lysed with a Dounce homogenizer and the material is centrifuged at 10,000×g for 10 minutes. The supernatant is then collected and centrifuged at 100,000×g for 60 minutes. To prepare membrane protein for an assay, an aliquot of the 100,000×g pellet is resuspended in 1 ml of buffer A, Dounce homogenized, and finally subjected to polytron mixing (30 seconds). Membrane protein (25 μl, 5 μg) is mixed with WGA SPA beads (Amersham) and stirred for 1 h. To an assay plate (Perkin Elmer FlexiPlate) is added 25 μl of test compound prepared in Binding buffer [100 mM Tris (pH 7.5), 140 mM NaCl, 5% glycerol, 2 mM EDTA, 0.5 mM TCEP, 0.05% Tween 20], 25 μl of [^125I]L-691,831 (an iodinated analog of MK-591, Charleson et al. Mol. Pharmacol., 41, 873-879, 1992) and finally 50 μl of the bead/protein mixture. (final concentrations: beads, 200 μg/well; protein, 5 μg/well; [^125I] probe, 0 08 nM/well (17 nCi/well). The plates are shaken for 2 h before reading on a Microbeta plate reader. Non-specific binding is determined by the addition of 10 μM cold L-691,831 compound.
A general note: SPA uses beads or plates that emit light when radiolabelled molecules are held near them.

With `COc1ccnc(COc2ccn3c(C(=O)c4ccc(Cl)cc4)c(CC(C)(C)C(=O)O)c(C(=O)C(C)(C)C)c3c2)c1` [3-{3-[(4-chlorophenyl)carbonyl]-1-(2,2-dimethylpropanoyl)-7-[(4-methoxypyridin-2-yl)methoxy]indolizin-2-yl}-2,2-dimethylpropanoic acid], the IC50 (usually the point on the concentration scale where inhibition reaches its midpoint) turned out to be 8 nM.

Consider `CC(C)(C)C(=O)c1c(CC(C)(C)C(=O)O)c(C(=O)c2ccc(Cl)cc2)c2ccc(OCc3ccccn3)cn12` [3-{1-[(4-chlorophenyl)carbonyl]-3-(2,2-dimethylpropanoyl)-6-(pyridin-2-ylmethoxy)indolizin-2-yl}-2,2-dimethylpropanoic acid], for which the IC50 is 79 nM.

With `Cc1nc(COc2ccn3c(C(=O)c4ccc(Cl)cc4)c(CC(C)(C)C(=O)O)c(C(=O)C(C)(C)C)c3c2)no1`, the IC50 is 90 nM.

With `Cc1csc(COc2ccn3c(C(=O)c4ccc(Cl)c(Cl)c4)c(CC(C)(C)C(=O)O)c(C(=O)C(C)(C)C)c3c2)n1` [3-{3-[(3,4-dichlorophenyl)carbonyl]-1-(2,2-dimethylpropanoyl)-7-[(4-methyl-1,3-thiazol-2-yl)methoxy]indolizin-2-yl}-2,2-dimethylpropanoic acid], the IC50 turned out to be 1 nM.

Turning to `Cc1nc(COc2ccn3c(C(=O)c4cc(Cl)cc(Cl)c4)c(CC(C)(C)C(=O)O)c(C(=O)C(C)(C)C)c3c2)cs1` [3-{3-[(3,5-dichlorophenyl)carbonyl]-1-(2,2-dimethylpropanoyl)-7-[(2-methyl-1,3-thiazol-4-yl)methoxy]indolizin-2-yl}-2,2-dimethylpropanoic acid], the IC50 is 1 nM.

For the compound `COc1ccc(C(=O)c2c(CC(C)(C)C(=O)O)c(C(=O)C(C)(C)C)c3cc(OCc4ccc5ccccc5n4)ccn23)cc1` [3-[1-(2,2-dimethylpropanoyl)-3-[(4-methoxyphenyl)carbonyl]-7-(quinolin-2-ylmethoxy)indolizin-2-yl]-2,2-dimethylpropanoic acid], the IC50 was determined as 1 nM.

Regarding `COc1c(C)cnc(COc2ccn3c(C(=O)c4ccc(Cl)cc4)c(CC(C)(C)C(=O)O)c(C(=O)C(C)(C)C)c3c2)c1C` [3-{3-[(4-chlorophenyl)carbonyl]-1-(2,2-dimethylpropanoyl)-7-[(4-methoxy-3,5-dimethylpyridin-2-yl)methoxy]indolizin-2-yl}-2,2-dimethylpropanoic acid], the IC50 was 58 nM.

In the case of `COc1ccc(-c2ccc(C(=O)c3c(CC(C)(C)C(=O)O)c(C(=O)C(C)(C)C)c4cc(C(C)C)ccn34)cc2)cn1`, the IC50 was 232 nM.

With `CC(C)c1ccn2c(C(=O)c3ccc(C(F)(F)F)cc3)c(CC(C)(C)C(=O)O)c(C(=O)C(C)(C)C)c2c1` [3-[1-(2,2-dimethylpropanoyl)-7-(propan-2-yl)-3-{[4-(trifluoromethyl)phenyl]carbonyl}indolizin-2-yl]-2,2-dimethylpropanoic acid], the IC50 came to 316 nM.

For `Cc1cccc(COc2ccn3c(C(=O)c4ccc(Cl)cc4)c(CC(C)(C)C(=O)O)c(C(=O)C(C)(C)C)c3c2)n1` [3-{3-[(4-chlorophenyl)carbonyl]-1-(2,2-dimethylpropanoyl)-7-[(6-methylpyridin-2-yl)methoxy]indolizin-2-yl}-2,2-dimethylpropanoic acid], the IC50 came to 17 nM.

`COc1ccc(C(=O)c2c(CC(C)(C)C(=O)O)c(C(=O)C(C)(C)C)c3cc(OCc4nc(C)cs4)ccn23)cc1` [3-{1-(2,2-dimethylpropanoyl)-3-[(4-methoxyphenyl)carbonyl]-7-[(4-methyl-1,3-thiazol-2-yl)methoxy]indolizin-2-yl}-2,2-dimethylpropanoic acid]: the IC50 worked out at 3 nM.

For the compound `CCC(C)(Cc1c(C(=O)C(C)(C)C)c2cc(OCc3csc(C)n3)ccn2c1C(=O)c1ccc(OC)cc1)C(=O)O` (stereo not shown) [2-({1-(2,2-dimethylpropanoyl)-3-[(4-methoxyphenyl)carbonyl]-7-[(2-methyl-1,3-thiazol-4-yl)methoxy]indolizin-2-yl}methyl)-2-methylbutanoic acid], the IC50 came out at 2 nM.

For `CC(C)(C)C(=O)c1c(CC(C)(C)C(=O)O)c(C(=O)c2ccc(Br)cc2)n2ccc(OCc3ccccn3)cc12` [3-{3-[(4-bromophenyl)carbonyl]-1-(2,2-dimethylpropanoyl)-7-(pyridin-2-ylmethoxy)indolizin-2-yl}-2,2-dimethylpropanoic acid], the IC50 came out at 99 nM.

`COc1ccc(C(=O)c2c(CC(C)(C)C(N)=O)c(C(=O)C(C)(C)C)c3cc(OCc4cccc(N)n4)ccn23)cc1` [3-{7-[(6-aminopyridin-2-yl)methoxy]-1-(2,2-dimethylpropanoyl)-3-(4-methoxybenzoyl)indolizin-2-yl}-2,2-dimethylpropanamide]: the IC50 was 2 nM.

In the case of `CCCC(Cc1c(C(=O)C(C)(C)C)c2cc(OCc3csc(C)n3)ccn2c1C(=O)c1ccc(OC)cc1)C(=O)O` (stereo not shown) [2-({1-(2,2-dimethylpropanoyl)-3-[(4-methoxyphenyl)carbonyl]-7-[(2-methyl-1,3-thiazol-4-yl)methoxy]indolizin-2-yl}methyl)pentanoic acid], the IC50 was 7 nM.

As to `CC(C)(C)C(=O)c1c(CC(C)(C)C(=O)O)c(C(=O)c2ccc(Cl)cc2)n2ccc(OCc3nccs3)cc12` [3-{3-[(4-chlorophenyl)carbonyl]-1-(2,2-dimethylpropanoyl)-7-(1,3-thiazol-2-ylmethoxy)indolizin-2-yl}-2,2-dimethylpropanoic acid], the IC50 amounted to 25 nM.

`CC(C)(C)C(=O)c1c(CC(C)(C)C(=O)O)c(C(=O)c2ccc(Cl)cc2)n2ccc(OCc3ccc4ccccc4n3)cc12` [3-{3-[(4-chlorophenyl)carbonyl]-1-(2,2-dimethylpropanoyl)-7-(quinolin-2-ylmethoxy)indolizin-2-yl}-2,2-dimethylpropanoic acid]: the IC50 was 8 nM.

In the case of `COc1cccc(COc2ccn3c(C(=O)c4ccc(Cl)cc4)c(CC(C)(C)C(=O)O)c(C(=O)C(C)(C)C)c3c2)n1` [3-{3-[(4-chlorophenyl)carbonyl]-1-(2,2-dimethylpropanoyl)-7-[(6-methoxypyridin-2-yl)methoxy]indolizin-2-yl}-2,2-dimethylpropanoic acid], the IC50 worked out at 8 nM.

As to `Cc1cccc(COc2ccc3c(C(=O)c4ccc(Cl)cc4)c(CC(C)(C)C(=O)O)c(C(=O)C(C)(C)C)n3c2)n1` [3-{1-[(4-chlorophenyl)carbonyl]-3-(2,2-dimethylpropanoyl)-6-[(6-methylpyridin-2-yl)methoxy]indolizin-2-yl}-2,2-dimethylpropanoic acid], the IC50 came to 8 nM.

As for `CCCC(Cc1c(C(=O)C(C)(C)C)c2cc(OCc3cccc(C)n3)ccn2c1C(=O)c1ccc(Cl)c(Cl)c1)C(=O)O` (stereo not shown) [2-({3-[(3,4-dichlorophenyl)carbonyl]-1-(2,2-dimethylpropanoyl)-7-[(6-methylpyridin-2-yl)methoxy]indolizin-2-yl}methyl)pentanoic acid], the IC50 was 2 nM.

Regarding `Cc1nc(COc2ccn3c(C(=O)c4ccc(Cl)c(C)c4)c(CC(C)(C)C(=O)O)c(C(=O)C(C)(C)C)c3c2)cs1` [3-{3-[(4-chloro-3-methylphenyl)carbonyl]-1-(2,2-dimethylpropanoyl)-7-[(2-methyl-1,3-thiazol-4-yl)methoxy]indolizin-2-yl}-2,2-dimethylpropanoic acid], the IC50 worked out at 2 nM.

For the compound `Cc1csc(COc2ccn3c(C(=O)c4cccc(Cl)c4)c(CC(C)(C)C(=O)O)c(C(=O)C(C)(C)C)c3c2)n1` [3-{3-[(3-chlorophenyl)carbonyl]-1-(2,2-dimethylpropanoyl)-7-[(4-methyl-1,3-thiazol-2-yl)methoxy]indolizin-2-yl}-2,2-dimethylpropanoic acid], the IC50 was found to be 1 nM.

In the case of `COc1ccc(C(=O)c2c(CC(C(=O)O)C(C)C)c(C(=O)C(C)(C)C)c3cc(OCc4nc5ccccc5s4)ccn23)cc1` (stereo not shown) [2-({7-(1,3-benzothiazol-2-ylmethoxy)-1-(2,2-dimethylpropanoyl)-3-[(4-methoxyphenyl)carbonyl]indolizin-2-yl}methyl)-3-methylbutanoic acid], the IC50 came to 1 nM.

As for `Cc1nc(COc2ccn3c(C(=O)c4ccc(Cl)c(Cl)c4)c(CC(C)(C)C(=O)O)c(C(=O)C(C)(C)C)c3c2)cs1` [3-{3-[(3,4-dichlorophenyl)carbonyl]-1-(2,2-dimethylpropanoyl)-7-[(2-methyl-1,3-thiazol-4-yl)methoxy]indolizin-2-yl}-2,2-dimethylpropanoic acid], the IC50 turned out to be 111 nM.

As to `CC(C)(C)C(=O)c1c(CC(C)(C)C(=O)O)c(C(=O)c2ccc(Cl)cc2)n2ccc(OCc3ccccn3)cc12` [3-{3-[(4-chlorophenyl)carbonyl]-1-(2,2-dimethylpropanoyl)-7-(pyridin-2-ylmethoxy)indolizin-2-yl}-2,2-dimethylpropanoic acid], the IC50 is 44 nM.
